In US9849104B2 (Gemphire Therapuetics Inc., priority 2015, dated 2017):
Where two headings read alike, the source gives them in different places.

Legend:
[1] = tested on: STAM model of non-alcoholic steatohepatitis (NASH); settings: for Fasting blood glucose (mean ± SD): Day 18, 8 hours of fasting; for Non-fasting blood glucose (mean ± SD): termination (Day 21); for Plasma GGT (mean ± SD) / Plasma creatinine (mean ± SD) / Plasma ALP (mean ± SD): mouse, in vivo, po
Procedure: Telmisartan (Micardis®) was purchased from Boehringer Ingelheim GmbH (Germany) and dissolved in pure water.
Telmisartan was administered at a dose of 10 mg/kg once daily.
Eight-hour fasting blood glucose was measured in whole blood using Life Check (EIDIA Co. Ltd., Japan). For plasma biochemistry, eight-hour fasting blood was collected in polypropylene tubes with anticoagulant (Novo-Heparin, Mochida Pharmaceutical, Japan) and centrifuged at 1,000×g for 15 minutes at 4° C. The supernatant was collected and stored at −80° C. until use. Plasma insulin levels were quantified by Ultra Sensitive Mouse Insulin ELISA kit (Morinaga Institute of Biological Science, Inc., Japan).
On the day of termination, non-fasting blood glucose was measured in whole blood using Life Check. For plasma biochemistry, non-fasting blood was collected in polypropylene tubes with anticoagulant (Novo-Heparin) and centrifuged at 1,000×g for 15 minutes at 4° C. The supernatant was collected and stored at −80° C. until use. Plasma ALT, AST, ALP, GGT, BUN, creatinine and total bilirubin levels were measured by FUJI DRI-CHEM 7000 (Fujifilm Corporation, Japan). Plasma ketone body levels were quantified by EnzyChrom™ Ketone Body Assay Kit (BioAssay Systems, USA).
Liver samples were homogenized in chloroform-methanol (2:1, v/v) and incubated overnight at room temperature. After washing with chloroform-methanol-water (8:4:3, v/v/v), the extracts were evaporated to dryness, and dissolved in isopropanol. Liver triglyceride content was measured by Triglyceride E-test (Wako Pure Chemical Industries). […]
Statistical analyses were performed using Bonferroni Multiple Comparison Test on GraphPad Prism 6 (GraphPad Software Inc., USA). […] Results were expressed as mean±SD.
The viability, clinical signs and behavior were monitored daily. Body weight was recorded before the treatment. […] The animals were sacrificed by exsanguinations through direct cardiac puncture under isoflurane anesthesia (Pfizer Inc.) at 9 weeks of age.

[2] = tested on: CYP1A2, CYP2A6, CYP2C9, CYP2C19, CYP2D6, CYP2E1, CYP3A4; assay: in vitro; settings: human, microsomes
From the text: Human livers, HLM141, HLM143, and HLM144 were selected from the University of Washington Human Liver Bank for this study. […] The actual concentrations used for each of the other probes are specified below. […] The seven isoforms and the metabolic pathway of each of the probes used to monitor specific isoform activity are listed below.

CYP2C9 = target: T1, CYP2C9 (Homo sapiens, UniProt P11712); assay: Inhibition of CYP2C9 (7-hydroxylation of (S)-warfarin) in human liver microsomes; assay type: in vitro ADME; settings: probe (S)-warfarin (7-hydroxylation), 4 μM, read-out: inhibitory activity toward CYP2C9
T1 construct: Human livers, HLM141, HLM143, and HLM144 were selected from the University of Washington Human Liver Bank for this study; Microsomes were prepared; tissue University of Washington Human Liver Bank HLM141, HLM143, HLM144; host or cells: human liver microsomes
Procedure: (§1) Human livers, HLM141, HLM143, and HLM144 were selected from the University of Washington Human Liver Bank for this study. […] The seven isoforms and the metabolic pathway of each of the probes used to monitor specific isoform activity are listed below.
CYP2C9: The 7-hydroxylation of (S)-warfarin (4 μM). The reaction is monitored by quantitative GC/MS using 7-hydroxywarfarin-(d5-phenyl) as the internal standard.

CYP2A6 = target: T2, CYP2A6 (Homo sapiens, UniProt P11509); assay: Inhibition of CYP2A6 (7-hydroxylation of coumarin) in human liver microsomes; assay type: in vitro ADME; settings: probe coumarin (7-hydroxylation), 4 μM, read-out: inhibitory activity toward CYP2A6
T2 construct: Human livers, HLM141, HLM143, and HLM144 were selected from the University of Washington Human Liver Bank for this study; Microsomes were prepared; tissue University of Washington Human Liver Bank HLM141, HLM143, HLM144; host or cells: human liver microsomes
T2 sequence (P11509 1-494): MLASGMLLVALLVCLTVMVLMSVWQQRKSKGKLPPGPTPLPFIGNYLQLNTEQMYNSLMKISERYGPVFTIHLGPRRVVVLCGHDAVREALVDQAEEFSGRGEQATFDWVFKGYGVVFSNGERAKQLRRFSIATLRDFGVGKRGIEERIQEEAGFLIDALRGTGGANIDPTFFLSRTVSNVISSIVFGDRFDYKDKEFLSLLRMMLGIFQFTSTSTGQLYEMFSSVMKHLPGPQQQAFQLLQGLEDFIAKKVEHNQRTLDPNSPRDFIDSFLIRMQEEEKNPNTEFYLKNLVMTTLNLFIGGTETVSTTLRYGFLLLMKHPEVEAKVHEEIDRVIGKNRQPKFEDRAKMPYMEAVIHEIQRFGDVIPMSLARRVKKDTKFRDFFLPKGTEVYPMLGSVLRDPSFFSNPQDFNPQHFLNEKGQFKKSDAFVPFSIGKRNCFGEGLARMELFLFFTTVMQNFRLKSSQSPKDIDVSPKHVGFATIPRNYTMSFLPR
Procedure: as §1
CYP2A6: The 7-hydroxylation of coumarin (4 μM). The reaction is monitored by HPLC using florescence detection.

CYP2E1 = target: T3, CYP2E1 (Homo sapiens, UniProt P05181); assay: Inhibition of CYP2E1 (p-nitrocatechol from p-nitrophenol) in human liver microsomes; assay type: in vitro ADME; settings: 1500 μM
T3 construct: Human livers, HLM141, HLM143, and HLM144 were selected from the University of Washington Human Liver Bank for this study; Microsomes were prepared; tissue University of Washington Human Liver Bank HLM141, HLM143, HLM144; host or cells: human liver microsomes
Procedure: as §1
CYP2E1: The formation of p-nitrocatechol from p-nitrophenol (40 μM). Amounts of product formed are monitored by HPLC.

[3] = Musculoskeletal adverse events, study A4141001; assay type: in vivo, human
[4] = Effect of gemcabene on simvastatin pharmacokinetics (active HMG-Co-A reductase inhibitor concentration); assay type: in vivo, human; settings: simvastatin alone vs in combination with gemcabene
CYP2D6 = target: T4, CYP2D6 (Homo sapiens, UniProt P10635); assay: Inhibition of CYP2D6 (demethylation of dextromethorphan) in human liver microsomes; assay type: in vitro ADME; settings: probe dextromethorphan (O-demethylation), 5 μM, read-out: inhibitory activity toward CYP2D6
T4 construct: Human livers, HLM141, HLM143, and HLM144 were selected from the University of Washington Human Liver Bank for this study; Microsomes were prepared; tissue University of Washington Human Liver Bank HLM141, HLM143, HLM144; host or cells: human liver microsomes
Procedure: as §1
CYP2D6: The 0-demethylation of dextromethorphan (5 μM). The reaction is monitored by high performance liquid chromatography (HPLC) using florescence detection.

[5] = gemcabene 300 and 900 mg QD with atorvastatin 80 mg QD
[6] = STAM NASH mice, 30 mg/kg PO QD, 30 mg/kg
[7] = STAM NASH mice, 100 mg/kg PO QD, 100 mg/kg
[8] = STAM NASH mice, 100 mg/kg PO QD, Day 21, 100 mg/kg
[9] = STAM NASH mice, 300 mg/kg PO QD, 300 mg/kg
[10] = A4141001, patient type IIa + IIb

T4 sequence (P10635 whole entry): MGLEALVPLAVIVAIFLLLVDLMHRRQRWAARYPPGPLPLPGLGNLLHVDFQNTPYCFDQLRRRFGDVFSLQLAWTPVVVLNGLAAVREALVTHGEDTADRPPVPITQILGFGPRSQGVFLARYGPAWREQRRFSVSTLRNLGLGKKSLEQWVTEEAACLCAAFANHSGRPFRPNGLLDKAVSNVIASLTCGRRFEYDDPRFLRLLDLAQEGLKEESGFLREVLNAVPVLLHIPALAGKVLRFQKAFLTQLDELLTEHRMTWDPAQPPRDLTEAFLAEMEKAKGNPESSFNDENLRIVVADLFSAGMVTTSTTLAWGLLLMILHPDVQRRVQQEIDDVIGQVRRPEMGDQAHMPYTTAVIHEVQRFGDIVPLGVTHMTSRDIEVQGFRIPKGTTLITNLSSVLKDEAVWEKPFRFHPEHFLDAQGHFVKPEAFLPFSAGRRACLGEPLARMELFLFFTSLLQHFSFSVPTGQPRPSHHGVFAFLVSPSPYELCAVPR
T3 sequence (P05181 whole entry): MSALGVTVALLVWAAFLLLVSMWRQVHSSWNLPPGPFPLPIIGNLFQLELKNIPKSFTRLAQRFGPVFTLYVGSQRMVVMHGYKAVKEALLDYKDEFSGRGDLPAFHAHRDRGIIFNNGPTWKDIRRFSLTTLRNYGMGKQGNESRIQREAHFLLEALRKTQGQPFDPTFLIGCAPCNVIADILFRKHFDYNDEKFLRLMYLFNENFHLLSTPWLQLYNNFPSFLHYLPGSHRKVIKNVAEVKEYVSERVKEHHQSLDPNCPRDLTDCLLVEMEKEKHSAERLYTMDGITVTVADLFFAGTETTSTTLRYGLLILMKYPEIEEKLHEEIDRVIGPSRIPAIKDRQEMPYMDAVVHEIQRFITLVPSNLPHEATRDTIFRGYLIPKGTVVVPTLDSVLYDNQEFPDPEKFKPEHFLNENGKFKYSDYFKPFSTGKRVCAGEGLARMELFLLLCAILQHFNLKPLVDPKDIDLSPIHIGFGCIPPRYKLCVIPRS
T1 sequence (P11712 whole entry): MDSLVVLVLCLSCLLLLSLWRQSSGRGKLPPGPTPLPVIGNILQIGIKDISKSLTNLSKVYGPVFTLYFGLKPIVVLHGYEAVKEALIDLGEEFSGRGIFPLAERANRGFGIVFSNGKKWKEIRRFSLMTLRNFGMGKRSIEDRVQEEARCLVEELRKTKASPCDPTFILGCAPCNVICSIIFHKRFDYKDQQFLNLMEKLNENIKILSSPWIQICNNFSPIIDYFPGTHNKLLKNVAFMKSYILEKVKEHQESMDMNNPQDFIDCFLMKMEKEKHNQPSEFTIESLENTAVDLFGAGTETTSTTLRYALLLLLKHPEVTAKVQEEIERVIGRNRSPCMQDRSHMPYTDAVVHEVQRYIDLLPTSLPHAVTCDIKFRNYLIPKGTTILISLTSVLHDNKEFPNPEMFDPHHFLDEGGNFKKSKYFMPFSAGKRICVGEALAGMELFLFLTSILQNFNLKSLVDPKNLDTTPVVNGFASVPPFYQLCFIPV

Q: Which “NAFLD Activity score, NAS (mean ± SD)” value ([1]; STAM NASH mice, 30 mg/kg PO QD 6-9 wks, 30 mg/kg) does the source give for `CC(C)(CCCCOCCCCC(C)(C)C(=O)O)C(=O)O` [Gemcabene, 6,6′-oxybis(2,2-dimethylhexanoic acid)] here?
A: The value was “significant reduction”.

Q: What about the “Fasting blood glucose (mean ± SD)” value [1, 6] of the same molecule?
A: The value was “no significant differences”.

Q: And the “Liver triglyceride (mean ± SD)” value ([1]; STAM NASH mice, 30 mg/kg PO QD, Day 21, 30 mg/kg)?
A: Its value is “no significant differences”.

Q: And the “Non-fasting blood glucose (mean ± SD)” value [1, 6]?
A: Its value is “no significant differences”.

Q: What about the “Fasting blood glucose (mean ± SD)” value [1, 7] of the same molecule?
A: The value was “no significant differences”.

Q: What about the “Liver triglyceride (mean ± SD)” value [1, 8] of the same molecule?
A: Its value is “no significant differences”.

Q: What about the “Plasma ALT (mean ± SD)” value [1, 8] of the same molecule?
A: Its value is “significant decrease”.

Q: What about the “Non-fasting blood glucose (mean ± SD)” value [1, 7] of the same molecule?
A: The value was “no significant differences”.

Q: What about the “NAFLD Activity score, NAS (mean ± SD)” value ([1]; STAM NASH mice, 300 mg/kg PO QD 6-9 wks, 300 mg/kg) of the same molecule?
A: Its value is “significant reduction”.

Q: What about the “Fasting blood glucose (mean ± SD)” value [1, 9] of the same molecule?
A: Its value is “no significant differences”.

Q: And the “Liver triglyceride (mean ± SD)” value ([1]; STAM NASH mice, 300 mg/kg PO QD, Day 21, 300 mg/kg)?
A: The value was “no significant differences”.

Q: What about the “Non-fasting blood glucose (mean ± SD)” value [1, 9] of the same molecule?
A: Its value is “no significant differences”.

Q: And the “fibrosis area compared with the Vehicle in NASH group” value ([1]; STAM NASH mice, all treatment groups (gemcabene 30, 100, 300 mg/kg; telmisartan 10 mg/kg))?
A: Its value is “significantly reduced”.

Q: What about the “Plasma GGT (mean ± SD)” value ([1]; 30 mg/kg) of the same molecule?
A: Its value is 1 ± 0 U/L.

Q: And the “Plasma creatinine (mean ± SD)” value ([1]; 30 mg/kg)?
A: Its value is 0.1 ± 0.0 mg/dL.

Q: And the “Plasma ALP (mean ± SD)” value ([1]; 100 mg/kg)?
A: Its value is “significant increases”.

Q: And the “Plasma GGT (mean ± SD)” value ([1]; 100 mg/kg)?
A: Its value is 1 ± 0 U/L.

Q: And the “Plasma ALP (mean ± SD)” value ([1]; 300 mg/kg)?
A: The value was “significant increases”.

Q: And the “Plasma GGT (mean ± SD)” value ([1]; 300 mg/kg)?
A: Its value is 1 ± 0 U/L.

Q: And the “Plasma creatinine (mean ± SD)” value ([1]; 300 mg/kg)?
A: Its value is “significant increase”.

Q: And the IC50 [2]?
A: Its IC50 is greater than 454 µg/mL.

Q: What about the inhibition at 1500 µM (CYP2C9) of the same molecule?
A: The inhibition at 1500 µM was 10 to 20%.

Q: And the inhibition at 1500 µM (CYP2A6)?
A: Its inhibition at 1500 µM is 10 to 20%.

Q: And the CYP2E1 activity enhanced (CYP2E1)?
A: The CYP2E1 activity enhanced was “about 20%”.

Q: And the “% = the percent of patients experiencing a musculoskeletal adverse event” value (shortened to “% = the percent”) ([3]; A4141001, patient type IIa)?
A: The value was 0.0%.

Q: What about the “No = the number of muscle skeletal adverse events” value (shortened to “No = the number”) ([3]; A4141001, patient type IIa) of the same molecule?
A: Its value is 0.

Q: And the “% = the percent” value [3, 10]?
A: Its value is 0.0%.

Q: What about the “No = the number” value [3, 10] of the same molecule?
A: The value was 0.

Q: And the “% = the percent” value ([3]; A4141001, patient type IIb)?
A: Its value is 0.0%.

Q: And the “No = the number” value ([3]; A4141001, patient type IIb)?
A: Its value is 0.

Q: And the “effect on active HMG-Co-A reductase inhibitor pharmacokinetics after simvastatin (80 mg)” value [4]?
A: The value was “lowers Cmax but has no effect on AUC”.

Q: What about the inhibition at 1500 µM (CYP2D6) of the same molecule?
A: Its inhibition at 1500 µM is 10 to 20%.

Q: What about the “effect on atorvastatin pharmacokinetics (Cmax, tmax, AUC(0-24), t½, atorvastatin and metabolites)” value [5] of the same molecule?
A: Its value is “no clinically important effect”.
